Consider 67 compounds from patent US12391674B2, “Heterocyclic compounds for the treatment of epilepsy” (OTSUKA PHARMACEUTICAL CO., LTD., priority 2018, dated 2025).

The subject of the first assay is DBA/2 mice. Put plainly: Audiogenic seizure model. Particulars: Mus musculus, po, 1 h, read-out: Seizure suppression. In kind it is in vivo. As for the experimental part: The animal model used in this test is a phenotype model for partial seizure (including secondary generalized seizure) and generalized tonic-clonic seizure, and has high clinical predictability. This test was performed in accordance with the report of De Sarro et al (Br J Pharmacol. 1988 February; 93 (2): 247-56. Anticonvulsant effects of some calcium entry blockers in DBA/2 mice. De Sarro G B, Meldrum B S, Nistico G.).
In this test example, the example compounds shown in Tables 3-1 to 3-3 below were used as test compounds.
The test compounds were suspended in 5% gum arabic/distilled water (w/v), and administered by forced oral administration to male and female DBA/2 mice (Japan SLC, Inc., 3 weeks old, 8 per group) at a dose of 30 mg/kg. After one hour of the oral administration of the test compound, each mouse was placed in a transparent acrylic cylinder 30 cm high and 23 cm in diameter, and 30 seconds were allowed for habituation. Then, they were exposed to auditory stimulation (12.6 kHz, 100-110 dB) for 1 minute or until a tonic seizure occurred.
The seizure response was assessed using the following scale, 0: no seizure, 1: wild running, 2: clonic seizure, 3: tonic seizure and 4: respiratory arrest. The maximum response was recorded as the seizure severity score.
The seizure suppression rate for each compound administration group was calculated according to the following formula.
Here, a rate of seizure suppression of 90% or more was expressed as “A”, a rate of seizure suppression of 70% or more and less than 90% was expressed as “B”, and a rate of seizure suppression of 50% or more and less than 70% was expressed as “C”.
For `Fc1ccc(Oc2ncc(-c3ccc(C(F)(F)F)nn3)cn2)cc1` [Example 57], the inhibition in vivo at 30 mg/kg is more than 90%.

Still in this assay, the particulars now being: Mus musculus; DBA/2 mice, oral, dose 3 mg/kg, auditory stimulation 1 hour after administration; read-out: Seizure suppression.
For `COc1ccc(-c2cnc(Oc3cccc(C(F)(F)F)c3)nc2)nn1` [Example 12], the inhibition in vivo at 3 mg/kg was more than 90%.

Still in this assay, the particulars now being: Mus musculus; DBA/2 mice, oral, dose 5 mg/kg, auditory stimulation 1 hour after administration; read-out: Seizure suppression.
Consider `Cc1cccc(Oc2ncc(-c3ccc(=O)[nH]c3)cn2)c1` [Example 106, 5-(2-(m-Tolyloxy)Pyrimidin-5-Yl)Pyridin-2 (1H)-One], for which the inhibition in vivo at 5 mg/kg was more than 90%.

As to `Fc1ccc(F)c(Oc2ncc(-c3ccc4nccn4c3)cn2)c1` [Example 166], the inhibition in vivo at 5 mg/kg is more than 90%.

Take `O=C1Cc2cc(-c3cnc(Oc4ccccc4F)nc3)ccc2N1` [Example 264]: the inhibition in vivo at 5 mg/kg is more than 90%.

Staying with this assay, now noted: Mus musculus; DBA/2 mice, oral, dose 30 mg/kg, auditory stimulation 1 hour after administration; read-out: Seizure suppression.
Take `Cc1cnc2ccc(-c3cnc(Oc4cccc(F)c4)nc3)cn12` [Example 192]: the inhibition in vivo at 30 mg/kg is more than 90%. Take `Nc1nc2ccc(-c3cnc(Oc4ccccc4)nc3)cc2s1` [Example 240, 6-(2-Phenoxypyrimidin-5-Yl)Benzo[d]Thiazol-2-Amine]: the inhibition in vivo at 30 mg/kg was more than 90%. Still for that read-out and setting: the value for `O=C1COCCN1c1cnc(Oc2cccc(F)c2)nc1` [Example 230] was more than 90%. For the compound `Cc1c(-c2cnc(Oc3cccc(F)c3)nc2)ccc2nccn12` [Example 200], the inhibition in vivo at 30 mg/kg is more than 90%. Same read-out and setting: the value for `Fc1cccc(Oc2ncc(-c3cnc4ncnn4c3)cn2)c1` [Example 189] was more than 90%.

As for `OC1CCN(c2cnc(Oc3cccc(F)c3)nc2)CC1` [Example 227], the inhibition in vivo at 30 mg/kg is more than 90%. Same read-out and setting: the value for `O=c1[nH]cnc2ccc(-c3cnc(Oc4ccccc4)nc3)cc12` [Example 254] was more than 90%. Still for that read-out and setting: the value for `Fc1ccccc1Oc1ncc(-c2ccn3ccnc3c2)cn1` [Example 130] was more than 90%.

Turning to `COc1nc(Oc2ccccc2)ncc1-c1ccc2nncn2c1` [Example 159], the inhibition in vivo at 30 mg/kg is more than 90%.

With `Nc1ccc(-c2cnc(Oc3cccc(OC(F)(F)F)c3)nc2)cn1` [Example 48], the inhibition in vivo at 30 mg/kg is more than 90%.

As for `Cc1cccc(Oc2ncc(-c3ccc(N)nc3)cn2)c1` [Example 88, 5-(2-(m-Tolyloxy)Pyrimidin-5-Yl)Pyridin-2-Amine], the inhibition in vivo at 30 mg/kg was more than 90%. Still for that read-out and setting: the value for `Cc1cc(Oc2ccccc2)ccc1N1CCC(=O)NC1=O` [Example 324] was 50 to 70%; that for `Fc1ccccc1Oc1ncc(-c2ccc3nncn3n2)cn1` [Example 290] was more than 90%. Same read-out and setting: the value for `c1ccc(Oc2ncc(-c3ccnc4[nH]ccc34)cn2)cc1` [Example 138] was more than 90%; that for `O=C1CCC(c2cnc(Oc3cccc(C(F)(F)F)c3)nc2)=NN1` [Example 100] was more than 90%; that for `Cc1cnc2ccc(-c3cnc(Oc4ccc(F)cc4)nc3)cn12` [Example 193] was more than 90%.

As to `O=C1CCN(c2cccc(Oc3ccc(F)cc3)c2)C(=O)N1` [Example 315], the inhibition in vivo at 30 mg/kg fell in the range of 70 to 90%.

As for `Fc1cccc(Oc2ncc(-c3ccn4cc(C(F)(F)F)nc4c3)cn2)c1` [Example 218], the inhibition in vivo at 30 mg/kg was more than 90%. For the compound `O=C1CCC(c2cnc(Oc3cccc(F)c3)nc2)=NN1` [Example 94, 6-(2-(3-Fluorophenoxy)Pyrimidin-5-Yl)-4,5-Dihydropyridazin-3 (2H)-One], the inhibition in vivo at 30 mg/kg is more than 90%. On the same count and under the same terms, the value for `Fc1cccc(Oc2ncc(-c3ccc4nncn4n3)cn2)c1` [Example 291] was more than 90%. Same read-out and setting: as for `Cc1cccc(Oc2ncc(-c3cccnc3)cn2)c1` [Example 35], the figure is more than 90%; as for `O=c1[nH]nccc1-c1cnc(Oc2ccccc2F)nc1` [Example 117], more than 90%; as for `Fc1ccc(Oc2ncc(-c3ccn4cc(C(F)(F)F)nc4c3)cn2)cc1` [Example 219], more than 90%. Still for that read-out and setting: the value for `Nc1cc(-c2cnc(Oc3ccc(F)cc3)nc2)ccn1` [Example 79] was more than 90%; that for `O=C1CCC(c2cnc(Oc3ccccc3F)nc2)=NN1` [Example 96] was more than 90%; that for `Fc1ccccc1Oc1ncc(-c2cn3ccnc3cn2)cn1` [Example 149] was more than 90%. Turning to `c1ccc(Oc2ncc(-c3ccc4nccnc4c3)cn2)cc1` [Example 253], the inhibition in vivo at 30 mg/kg was more than 90%.

For `Nc1nccc2c(-c3cnc(Oc4ccccc4)nc3)cccc12` [Example 261], the inhibition in vivo at 30 mg/kg is more than 90%. Regarding `Cc1ccc(-c2cnc(Oc3cccc(F)c3)nc2)nn1` [Example 21], the inhibition in vivo at 30 mg/kg was more than 90%. Take `O=C1Cc2cc(-c3cnc(Oc4cccc(F)c4)nc3)ccc2N1` [Example 265]: the inhibition in vivo at 30 mg/kg was more than 90%. As for `O=C1Cc2ccc(-c3cnc(Oc4ccccc4F)nc3)cc2N1` [Example 269], the inhibition in vivo at 30 mg/kg was more than 90%. Turning to `Fc1ccccc1Oc1ncc(-c2ccn3nccc3c2)cn1` [Example 195], the inhibition in vivo at 30 mg/kg is more than 90%. The same measure, in the same setting: as for `Clc1cc2c(-c3cnc(Oc4ccccc4)nc3)cccc2cn1` [Example 268], the figure is more than 90%. Still for that read-out and setting: the value for `OCc1ccc(-c2cnc(Oc3ccccc3)nc2)nn1` [Example 72, (6-(2-Phenoxypyrimidin-5-Yl)Pyridazin-3-Yl) Methanol] was more than 90%; that for `O=C1NCCc2cc(-c3cnc(Oc4ccccc4)nc3)ccc21` [Example 247] was more than 90%; that for `Cc1ncccc1-c1cnc(Oc2ccc(F)cc2)nc1` [Example 49] was more than 90%. Take `O=C1CCOCCN1c1cnc(Oc2ccccc2)nc1` [Example 232]: the inhibition in vivo at 30 mg/kg is more than 90%. Same read-out and setting: the value for `Fc1ccccc1Oc1ncc(-c2ccn3nncc3c2)cn1` [Example 185] was more than 90%; that for `Cc1ncccc1-c1cnc(Oc2cccc(C(F)(F)F)c2)nc1` [Example 76] was more than 90%; that for `Cc1cc(Oc2cccc(F)c2)ccc1N1CCC(=O)NC1=O` [Example 334] was 50 to 70%. Regarding `Fc1ccccc1Oc1ncc(-c2ccc3cnnn3c2)cn1` [Example 174], the inhibition in vivo at 30 mg/kg is more than 90%. Same read-out and setting: the value for `Fc1ccccc1Oc1ncc(-c2ccc3nccn3n2)cn1` [Example 124] was more than 90%; that for `OC1CCN(c2cnc(Oc3ccc(F)cc3)nc2)CC1` [Example 228] was more than 90%.

Consider `Cn1ccc2cc(-c3cnc(Oc4ccccc4)nc3)ccc21` [Example 260], for which the inhibition in vivo at 30 mg/kg is more than 90%. On the same count and under the same terms, as for `Fc1cccc(Oc2ncc(-c3ccc4nnc(C(F)(F)F)n4c3)cn2)c1` [Example 281], the figure is more than 90%; as for `COc1ccc(-c2cnc(Oc3cccc(C(F)(F)F)c3)nc2)cn1` [Example 16], more than 90%. Same read-out and setting: as for `COc1cc(-c2cnc(Oc3ccccc3)nc2)ccn1` [Example 23], the figure is more than 90%. Same read-out and setting: the value for `COc1nc(Oc2ccccc2)ncc1-c1ccc2nccn2c1` [Example 142] was more than 90%. With `Fc1ccc(Oc2ncc(-c3ccc4cncn4c3)cn2)cc1` [Example 158], the inhibition in vivo at 30 mg/kg is more than 90%. As for `c1ccc(Oc2ncc(-c3cccc4ccncc34)cn2)cc1` [Example 249], the inhibition in vivo at 30 mg/kg is more than 90%. On the same count and under the same terms, the value for `COc1ccc(-c2cnc(Oc3ccc(F)cc3F)nc2)nn1` [Example 65] was more than 90%; that for `Cc1ncccc1-c1cnc(Oc2c(F)cccc2F)nc1` [Example 54] was more than 90%. On the same count and under the same terms, as for `O=c1ccn(-c2ccc(Oc3ccccc3)cc2)c(=O)[nH]1` [Example 322, 1-(4-Phenoxyphenyl)Pyrimidine-2,4 (1H,3H)-Dione], the figure is 50 to 70%; as for `Cc1cc(Oc2cccc(C(F)(F)F)c2)ccc1N1CCC(=O)NC1=O` [Example 335], 70 to 90%; as for `O=C1Cc2cc(-c3cnc(Oc4ccccc4F)nc3)ccc2N1` [Example 264], more than 90%. Still for that read-out and setting: the value for `Cc1ccc(-c2cnc(Oc3cccc(C(F)(F)F)c3)nc2)cn1` [Example 15] was more than 90%; that for `Clc1ccc(-c2cnc(Oc3ccccc3)nc2)cn1` [Example 51] was more than 90%. As for `COCc1cn2cc(-c3cnc(Oc4ccccc4)nc3)ccc2n1` [Example 208], the inhibition in vivo at 30 mg/kg is more than 90%. On the same count and under the same terms, as for `Cc1ccc(-c2cnc(Oc3ccccc3)nc2)c(C)n1` [Example 70], the figure is more than 90%.

In the case of `Nc1ccc(-c2cnc(Oc3cc(F)ccc3F)nc2)cn1` [Example 84, 5-(2-(2,5-Difluorophenoxy)Pyrimidin-5-Yl)Pyridin-2-Amine], the inhibition in vivo at 30 mg/kg is more than 90%.

As for `Cc1c(-c2cnc(Oc3ccccc3F)nc2)ccc2nccn12` [Example 199], the inhibition in vivo at 30 mg/kg is more than 90%.

With `O=C1CCN(c2ccc(Oc3ccc(S(F)(F)(F)(F)F)cc3)cc2)C(=O)N1` [Example 317], the inhibition in vivo at 30 mg/kg lay within 50 to 70%. The same measure, in the same setting: as for `Cc1ccc(-c2cnc(Oc3cc(F)cc(F)c3)nc2)nn1` [Example 17], the figure is more than 90%.
